Laboratory results: ChEMBL document CHEMBL1139698, “Potent, selective pyrimidinetrione-based inhibitors of MMP-13” (Bioorg Med Chem Lett, 2006)

What was measured:
Homo sapiens [1] = organism: Homo sapiens; test: Selectivity for MMP13 over MMP12
Homo sapiens [2] = organism: Homo sapiens; test: Selectivity for MMP13 over MMP8
Collagenase 3 [3] = target: T1, Collagenase 3 (Homo sapiens, UniProt P45452)
Homo sapiens [4] = organism: Homo sapiens; test: Selectivity for MMP13 over MMP2
Collagenase 3 [5] = target: T1, Collagenase 3; test: Inhibition of MMP13 in hamster synovial fluid; conditions: Cricetulus griseus
[6] = Plasma protein binding in rat; type: ADME, cell-free; conditions: read-out: PPB
Homo sapiens [7] = organism: Homo sapiens; test: Selectivity for MMP13 over MMP3
[8] = Plasma clearance in rat; type: ADME, organism-based
Homo sapiens [9] = organism: Homo sapiens; test: Selectivity for MMP13 over MMP9
[10] = Volume of distribution in rat; type: ADME, organism-based; conditions: in vivo, read-out: Vdss
Collagenase 3 [11] = target: Collagenase 3 (Rattus norvegicus, UniProt P23097); test: Inhibition of MMP13 in rat plasma; type: cell-free
[12] = Half life in rat; type: ADME, organism-based; conditions: in vivo
[13] = target: Matrix metalloproteinase (1 and 13) (Homo sapiens) (UniProt P45452+P03956); test: Selectivity for MMP13 over MMP1; type: protein assay
Cartilage tissue = test: Inhibition of bovine nasal cartilage degradation; type: functional, tissue-based; conditions: Bos taurus
Homo sapiens [14] = organism: Homo sapiens; test: Selectivity for MMP13 over MMP14

Chain of Matrix metalloproteinase (1 and 13) (Homo sapiens) (P03956 whole entry, looked up, other chains not shown): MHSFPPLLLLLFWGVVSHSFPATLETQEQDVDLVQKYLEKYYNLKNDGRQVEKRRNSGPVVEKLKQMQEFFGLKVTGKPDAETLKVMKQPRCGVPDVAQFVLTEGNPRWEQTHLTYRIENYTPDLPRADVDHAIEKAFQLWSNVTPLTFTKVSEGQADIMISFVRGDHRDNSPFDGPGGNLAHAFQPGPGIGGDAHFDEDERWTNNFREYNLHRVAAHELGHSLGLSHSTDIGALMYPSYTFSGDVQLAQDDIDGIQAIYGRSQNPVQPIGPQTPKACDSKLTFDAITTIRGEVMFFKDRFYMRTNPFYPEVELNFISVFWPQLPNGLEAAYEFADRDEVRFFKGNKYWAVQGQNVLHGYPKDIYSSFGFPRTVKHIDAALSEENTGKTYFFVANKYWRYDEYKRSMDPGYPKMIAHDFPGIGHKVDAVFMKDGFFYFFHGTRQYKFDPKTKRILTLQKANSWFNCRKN

SMILES | Selectivity ratio (Homo sapiens [1]) | Selectivity ratio (Homo sapiens [2]) | IC50 (Collagenase 3 [3]) | Selectivity ratio (Homo sapiens [4]) | further results
CCOCCC1(Oc2ccc(Oc3ccc(-c4nc(-c5ccccc5C#N)co4)cc3)cc2)C(=O)NC(=O)NC1=O | 178 | 569 | 0.88 nM | 142 | –
COCCC1(Oc2ccc(Oc3ccc(-c4nc(-c5cccc(F)c5)co4)cc3)cc2)C(=O)NC(=O)NC1=O | 1310 | 152 | 0.46 nM | 239 | –
CCOCCC1(Oc2ccc(Oc3ccc(-c4cnc(-c5ccccc5)o4)cc3)cc2)C(=O)NC(=O)NC1=O | 309 | 212 | 1.7 nM | 165 | –
CCOCCC1(Oc2ccc(Oc3ccc(-c4nnc(-c5ccccc5)o4)cc3)cc2)C(=O)NC(=O)NC1=O | 126 | 98 | 12 nM | 66 | –
CCOCCC1(Oc2ccc(Oc3ccc(-c4nc(-c5ccccc5F)no4)cc3)cc2)C(=O)NC(=O)NC1=O | 176 | 167 | 3.3 nM | 102 | –
CCOCCC1(Oc2ccc(Oc3ccc(C(=O)NCc4ccccn4)cc3)cc2)C(=O)NC(=O)NC1=O | 30 | – | 6.1 nM | 17 | –
CCOCCC1(Oc2ccc(Oc3ccc(C(=O)Nc4ccccc4)cc3)cc2)C(=O)NC(=O)NC1=O | 50 | 200 | 0.84 nM | 58 | –
CCOCCC1(Oc2ccc(Oc3ccc(-c4nc(-c5ccccc5)co4)cc3)cc2)C(=O)NC(=O)NC1=O | 259 | 115 | 2.4 nM | 58 | –
CCOCCC1(Oc2ccc(Oc3ccc(-c4nc(-c5ccccc5F)co4)cc3)cc2)C(=O)NC(=O)NC1=O | 868 | 270 | 0.93 nM | 562 | –
CCOCCC1(Oc2ccc(Oc3ccc(-c4cc(-c5ccccc5)no4)cc3)cc2)C(=O)NC(=O)NC1=O | 38 | 571 | 1.6 nM | 11 | –
CCOCCC1(Oc2ccc(Oc3ccc(-c4nc(-c5ccncc5)no4)cc3)cc2)C(=O)NC(=O)NC1=O | 232 | 555 | 0.54 nM | 291 | –
COCCC1(Oc2ccc(Oc3ccc(-c4nc(-c5cccc(C#N)c5)co4)cc3)cc2)C(=O)NC(=O)NC1=O | 181 | 140 | 0.63 nM | 29 | –
CCOCCC1(Oc2ccc(Oc3ccc(-c4nc(-c5ccc(F)cc5)co4)cc3)cc2)C(=O)NC(=O)NC1=O | 573 | 243 | 0.68 nM | 455 | –
CCOCCC1(Oc2ccc(Oc3ccc(C(=O)NCc4cccnc4)cc3)cc2)C(=O)NC(=O)NC1=O | 27 | – | 2.6 nM | 26 | –
CCOCCC1(Oc2ccc(Oc3ccc(C(=O)NCc4ccccc4)cc3)cc2)C(=O)NC(=O)NC1=O | 27 | – | 8 nM | 21 | –
COCCC1(Oc2ccc(Oc3ccc(-c4nc(-c5ccc(C#N)cc5)co4)cc3)cc2)C(=O)NC(=O)NC1=O | 619 | 394 | 0.84 nM | 397 | ED50 (Collagenase 3 [5]): 1 mg/kg; fraction unbound [6]: < 0.01; Selectivity ratio (Homo sapiens [7]): 1700; clearance [8]: 0.63 mL/min/kg; Selectivity ratio (Homo sapiens [9]): 540; Vd [10]: 0.34 L/kg; IC50 (Collagenase 3 [11]): 7200 nM; half-life [12]: 6.9 h; Selectivity ratio [13]: 2400; IC50 (Cartilage tissue): 40 nM; Selectivity ratio (Homo sapiens [14]): 540
CCOCCC1(Oc2ccc(Oc3ccc(-c4nc(-c5cccnc5)no4)cc3)cc2)C(=O)NC(=O)NC1=O | 504 | 320 | 2 nM | 134 | –
COCCC1(Oc2ccc(Oc3ccc(-c4nc(-c5ccc(F)cc5)co4)cc3)cc2)C(=O)NC(=O)NC1=O | 960 | 338 | 0.57 nM | 356 | –

SMILES | Selectivity ratio (Homo sapiens [1]) | Selectivity ratio (Homo sapiens [2]) | IC50 (Collagenase 3 [3]) | Selectivity ratio (Homo sapiens [4]) | further results
CCOCCC1(Oc2ccc(Oc3ccc(C(=O)Nc4ccccn4)cc3)cc2)C(=O)NC(=O)NC1=O | 27 | 15 | 3.9 nM | 27 | –
CCOCCC1(Oc2ccc(Oc3ccc(C(=O)NCc4ccc(F)cc4)cc3)cc2)C(=O)NC(=O)NC1=O | 11 | – | 3.4 nM | 17 | –
CCOCCC1(Oc2ccc(Oc3ccc(-c4nc(-c5ccncc5)co4)cc3)cc2)C(=O)NC(=O)NC1=O | 530 | 250 | 0.4 nM | 70 | –
COCCC1(Oc2ccc(Oc3ccc(-c4nc(-c5ccccc5C#N)co4)cc3)cc2)C(=O)NC(=O)NC1=O | 342 | 516 | 0.73 nM | 173 | –
CCOCCC1(Oc2ccc(Oc3ccc(-c4nc(-c5cccc(F)c5)co4)cc3)cc2)C(=O)NC(=O)NC1=O | 906 | 133 | 0.36 nM | 292 | –
CCOCCC1(Oc2ccc(Oc3ccc(-c4noc(-c5ccccc5)n4)cc3)cc2)C(=O)NC(=O)NC1=O | 37 | – | 0.84 nM | 27 | –
COCCC1(Oc2ccc(Oc3ccc(-c4nc(-c5ccccc5F)co4)cc3)cc2)C(=O)NC(=O)NC1=O | 605 | 149 | 1.4 nM | 288 | –
CCOCCC1(Oc2ccc(Oc3ccc(C(=O)NCc4ccccc4F)cc3)cc2)C(=O)NC(=O)NC1=O | 80 | 27 | 1.1 nM | 55 | –
CCOCCC1(Oc2ccc(Oc3ccc(-c4nc(-c5cccc(F)c5)no4)cc3)cc2)C(=O)NC(=O)NC1=O | 56 | 95 | 7.8 nM | 88 | –
CCOCCC1(Oc2ccc(Oc3ccc(C(=O)Nc4cccnc4)cc3)cc2)C(=O)NC(=O)NC1=O | 190 | 120 | 0.4 nM | 63 | –
CCOCCC1(Oc2ccc(Oc3ccc(-c4ncc(-c5ccccc5)o4)cc3)cc2)C(=O)NC(=O)NC1=O | 103 | 43 | 7.5 nM | 144 | –
CCOCCC1(Oc2ccc(Oc3ccc(-c4nc(-c5ccc(F)cc5)no4)cc3)cc2)C(=O)NC(=O)NC1=O | 114 | 210 | 6.1 nM | 80 | –
CCOCCC1(Oc2ccc(Oc3ccc(-c4nc(-c5ccccc5)no4)cc3)cc2)C(=O)NC(=O)NC1=O | 138 | 208 | 3.4 nM | 54 | –
CCOCCC1(Oc2ccc(Oc3ccc(-c4nc(-c5cccc(C#N)c5)co4)cc3)cc2)C(=O)NC(=O)NC1=O | 134 | 155 | 0.53 nM | 58 | –
CCOCCC1(Oc2ccc(Oc3ccc(-c4nc(-c5ccccn5)co4)cc3)cc2)C(=O)NC(=O)NC1=O | 158 | 57 | 1 nM | 74 | –
CCOCCC1(Oc2ccc(Oc3ccc(-c4nc(-c5ccc(C#N)cc5)co4)cc3)cc2)C(=O)NC(=O)NC1=O | 373 | 233 | 0.45 nM | 429 | –
CCOCCC1(Oc2ccc(Oc3ccc(-c4nc(-c5cccnc5)co4)cc3)cc2)C(=O)NC(=O)NC1=O | 124 | 265 | 0.34 nM | 38 | –
CCOCCC1(Oc2ccc(Oc3ccc(C(=O)NCc4cccc(F)c4)cc3)cc2)C(=O)NC(=O)NC1=O | 120 | 25 | 0.85 nM | 74 | –
